According to patent publication US20240043395A1, “COMPOUNDS AND COMPOSITIONS AS MODULATORS OF TLR SIGNALING” (Neuropore Therapies, Inc., priority 2020, published 2024):
“And” between values parts separate entries of the source, which are not always exact repeats. Identical values can stand only once.

Columns and labels:
Format in all cases: cell-based
[1] = target: T1, human TLR2 (Homo sapiens (Human), UniProt O60603); assay: HEK-Blue hTLR2 antagonism assay (SEAP reporter), agonist Pam2CSK4; settings: HEK-Blue hTLR2 cells; Pam2CSK4 (TLR2/6 agonist) at approx. 3×EC50; 18 h; 8-point dilutions
T1 sequence (O60603 21-784): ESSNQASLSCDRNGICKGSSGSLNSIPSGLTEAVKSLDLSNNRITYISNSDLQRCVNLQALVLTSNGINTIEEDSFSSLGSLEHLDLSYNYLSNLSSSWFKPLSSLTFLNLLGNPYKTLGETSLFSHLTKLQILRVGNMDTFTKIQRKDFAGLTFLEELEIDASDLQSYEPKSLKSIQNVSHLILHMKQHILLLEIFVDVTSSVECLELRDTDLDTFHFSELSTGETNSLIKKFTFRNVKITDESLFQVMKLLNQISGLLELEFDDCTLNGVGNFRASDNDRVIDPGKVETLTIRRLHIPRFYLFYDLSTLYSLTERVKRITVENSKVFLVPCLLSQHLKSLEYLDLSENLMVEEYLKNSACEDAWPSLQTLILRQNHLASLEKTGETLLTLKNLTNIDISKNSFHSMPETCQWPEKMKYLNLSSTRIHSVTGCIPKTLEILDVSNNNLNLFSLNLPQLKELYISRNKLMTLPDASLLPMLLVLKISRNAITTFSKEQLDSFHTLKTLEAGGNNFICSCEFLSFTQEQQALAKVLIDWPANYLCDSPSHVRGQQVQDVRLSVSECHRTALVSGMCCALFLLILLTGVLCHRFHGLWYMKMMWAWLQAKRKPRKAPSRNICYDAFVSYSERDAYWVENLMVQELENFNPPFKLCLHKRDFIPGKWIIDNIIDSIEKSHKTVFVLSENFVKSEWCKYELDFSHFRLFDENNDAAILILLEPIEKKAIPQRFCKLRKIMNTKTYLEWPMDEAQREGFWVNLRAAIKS
Method: (§1) Synthetic diacylated lipoprotein (Pam2CSK4, TLR2/6 agonist) and synthetic triacylated lipoprotein (Pam3CSK4, TLR1/2 agonist) were obtained from InvivoGen and were dissolved in endotoxin-free water to a concentration 1 mg/mL, vortexed until complete solubilization, and stored in aliquots at −20° C. Prior to addition to cells, an aliquot of the dissolved ligand was vortexed shortly and then was diluted in medium to 25 ng/mL Pam2CSK4 or 1000 ng/mL Pam3CSK4.
(§2) Test compounds were solubilized fresh to 10-20 mM stocks in DMSO and sonicated for 5-10 minutes in a water bath sonicator. Serial dilutions were prepared in DMSO, and then diluted in medium. The final concentration of DMSO used in the assay was 1%.
(§3) HEK-Blue hTLR2 reporter cells (InvivoGen) are HEK-293 cells stably expressing both the human TLR2 gene and a secreted embryonic alkaline phosphatase (SEAP) reporter construct downstream of NFκB promotor sites. HEK-Blue hTLR2 reporters were cultured according to manufacturer's protocol using Dulbecco's Modified Eagle Medium (DMEM; Gibco) containing 1× GlutaMax (Gibco), 10% heat-inactivated Fetal Bovine Serum (Gibco), Pen-Strep (50 U/mL penicillin, 50 μg/mL streptomycin, Gibco), 100 μg/mL Normocin (InvivoGen), and the selective antibiotic, lx HEK-Blue Selection (InvivoGen). Quanti-Blue reagent (InvivoGen) for detection and quantification of secreted alkaline phosphatase was dissolved in 100 mL of endotoxin-free water, warmed to 37° C. for 30 minutes and then filtered using a 0.2 μm membrane.
(§4) On day 1, 50 μL of each test compound dilution in duplicates or a vehicle control was added to each well of a 96-well plate followed by addition of 150 μL of HEK-Blue hTLR2 cell suspension (1×10^5 cells/well) and incubated at 37° C./5% CO2 for 2 h. Next, 50 μL of an approximate 3×EC50 concentration of each agonist (Pam2CSK4 or Pam3CSK4) was added to the wells containing test compounds or the vehicle control. The plates were then incubated at 37° C./5% CO2 for 18 h. For each assay run, non-treated HEK-Blue hTLR2 cells were treated with serial dilutions of agonists to determine EC50 values for the respective run.
(§5) On day 2, secreted alkaline phosphatase (SEAP) activity was detected in cell culture supernatants. In brief, 20 μL was collected from each well and transferred to a 96-well plate. Next, 200 μL of Quanti-Blue detection reagent was added to each well. Plates were incubated at room temperature for 15 min and SEAP activity was assessed by spectrophotometer OD reading at 655 nm. […] IC50 values were calculated based on 8-point dilutions for each compound.

[2] = target: T1, human TLR2; assay: HEK-Blue hTLR2 antagonism assay (SEAP reporter), agonist Pam3CSK4; settings: HEK-Blue hTLR2 cells; Pam3CSK4 (TLR1/2 agonist) at approx. 3×EC50; 18 h; 8-point dilutions
Method: as §1, §2, §3, §4, §5

[3] = target: human TLR9 (Homo sapiens (Human), UniProt Q9NR96); assay: HEK-Blue hTLR9 antagonism assay (SEAP reporter), agonist ODN 2006; settings: HEK-Blue hTLR9 cells; ODN 2006 (TLR9 agonist) at approx. 3×EC50; 18 h; exact values 8-point, approximate (~ or <) 4-point dilutions; read-out: IC50 (μM) with ODN2006
human TLR9, sequence (Q9NR96 26-1032): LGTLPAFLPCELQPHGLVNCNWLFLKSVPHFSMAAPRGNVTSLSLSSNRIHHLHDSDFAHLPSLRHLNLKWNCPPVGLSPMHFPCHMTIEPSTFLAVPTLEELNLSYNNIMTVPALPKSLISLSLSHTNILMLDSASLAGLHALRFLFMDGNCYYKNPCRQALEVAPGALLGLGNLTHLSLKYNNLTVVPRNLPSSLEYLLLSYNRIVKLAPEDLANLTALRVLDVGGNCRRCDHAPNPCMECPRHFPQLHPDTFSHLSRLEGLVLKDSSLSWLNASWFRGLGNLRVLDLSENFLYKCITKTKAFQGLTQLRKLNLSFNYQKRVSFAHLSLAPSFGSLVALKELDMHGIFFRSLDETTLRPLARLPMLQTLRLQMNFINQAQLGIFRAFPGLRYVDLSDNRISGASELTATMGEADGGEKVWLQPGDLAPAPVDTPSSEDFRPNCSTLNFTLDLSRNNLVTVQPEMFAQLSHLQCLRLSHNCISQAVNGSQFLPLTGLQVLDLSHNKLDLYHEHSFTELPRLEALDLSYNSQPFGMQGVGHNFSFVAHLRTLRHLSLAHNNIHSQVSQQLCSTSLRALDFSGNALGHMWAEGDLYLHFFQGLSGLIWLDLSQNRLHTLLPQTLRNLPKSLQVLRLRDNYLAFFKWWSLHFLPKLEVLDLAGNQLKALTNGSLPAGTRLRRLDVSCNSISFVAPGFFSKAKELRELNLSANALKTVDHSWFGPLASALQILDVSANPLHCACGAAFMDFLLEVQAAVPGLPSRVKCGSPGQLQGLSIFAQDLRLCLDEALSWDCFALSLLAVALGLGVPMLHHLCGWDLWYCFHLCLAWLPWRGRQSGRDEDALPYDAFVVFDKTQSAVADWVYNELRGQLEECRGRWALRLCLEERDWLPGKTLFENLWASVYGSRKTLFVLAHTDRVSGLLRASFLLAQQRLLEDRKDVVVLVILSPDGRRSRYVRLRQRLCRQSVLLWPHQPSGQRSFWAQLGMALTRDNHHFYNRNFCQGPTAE
Method: Synthetic ODNs (ODN 2006 (ODN 7909), class B CpG oligonucleotide, TLR9 agonist) was obtained from InvivoGen and was dissolved in endotoxin-free water to a concentration 500 μM, vortexed until complete solubilization, and stored in aliquots at −20° C. Prior to addition to cells, an aliquot of the dissolved ligand was vortexed shortly and then was diluted in medium to 50 μM.
as §2
as §3, with “hTLR9” for “hTLR2”, “TLR9” for “TLR2”, “hTLR9 cells” for “hTLR2 reporters”, “antibiotics, 10 μg/mL Blasticidin (InvivoGen), and 100 μg/mL Zeocin” for “antibiotic, lx HEK-Blue Selection”
as §4, with “hTLR9” for “hTLR2”, “TLR9 agonist, ODN 2006,” for “each agonist (Pam2CSK4 or Pam3CSK4)”, “vehicle-treated” for “non-treated”, “agonist” for “agonists”
On day 2, secreted alkaline phosphatase (SEAP) activity was detected in cell culture supernatants. In brief, 30 μL was collected from each well and transferred to a 96-well plate. Next, 200 μL of Quanti-Blue detection reagent was added to each well. Plates were incubated at 37° C. for 60 min. and SEAP activity was assessed by spectrophotometer OD reading at 655 nm. […] Exact IC50 values were calculated based on 8-point dilutions for each compound. Approximate IC50 values (˜ or <) were calculated based on 4-point dilutions for each compound.

`O=Cc1cc(C(=O)Nc2ncc(-c3ccc(F)cc3)s2)cc(F)c1O` [Compound 11, 3-fluoro-N-(5-(4-fluorophenyl)thiazol-2-yl)-5-formyl-4-hydroxybenzamide] was tested, and the IC50 [1] was 1 µM, the IC50 [2] was 0.7 µM and the IC50 [3] was 0.4 µM.
For `O=Cc1cc(C(=O)Nc2ncc(-c3cccc(N4CCCC4)c3)s2)cc(F)c1O` [Compound 12, 3-fluoro-5-formyl-4-hydroxy-N-(5-(3-(pyrrolidin-1-yl)phenyl)thiazol-2-yl)benzamide], the IC50 [1] was 0.6 µM, the IC50 [2] was 0.6 µM and the IC50 [3] was 0.2 µM.
Molecule `O=Cc1cc(C(=O)Nc2cnc(N3CCCC3)c(C(F)(F)F)c2)cc(F)c1O` [Compound 19, 3-fluoro-5-formyl-4-hydroxy-N-(6-(pyrrolidin-1-yl)-5-(trifluoromethyl)pyridin-3-yl)benzamide] has an IC50 [1] of 0.4 µM, an IC50 [2] of 0.3 µM and an IC50 [3] of 0.6 µM.
With `O=Cc1cc(-c2cnn(-c3ccc(C(F)(F)F)cc3)c2)cc(F)c1O` [Compound 127, 3-fluoro-2-hydroxy-5-(1-(4-(trifluoromethyl)phenyl)-1H-pyrazol-4-yl)benzaldehyde] the IC50 [1] was 0.5 µM, the IC50 [2] was 0.5 µM and the IC50 [3] was 0.1 µM.
With `CN1CCN(/N=C/c2cc(C(=O)N3CCC(c4ccc(N5CCCC5)cc4)CC3)cc(F)c2O)CC1` [Compound 163, (3-fluoro-4-hydroxy-5-(((4-methylpiperazin-1-yl)imino)methyl)phenyl)(4-(4-(pyrrolidin-1-yl)phenyl)piperidin-1-yl)methanone] the IC50 [1] was 0.6 µM, the IC50 [2] was 0.4 µM and the IC50 [3] was 0.26 µM.
In the case of `O=C(c1cc(F)c(O)c(/C=N/N2CCOCC2)c1)N1CCC(c2ccc(N3CCCC3)cc2)CC1` [Compound 164, (3-fluoro-4-hydroxy-5-((morpholinoimino)methyl)phenyl)(4-(4-(pyrrolidin-1-yl)phenyl)piperidin-1-yl)methanone], the IC50 [1] is reported as 1.1 µM, the IC50 [2] is reported as 0.5 µM and the IC50 [3] is reported as 0.26 µM.
Work on `CN1CCN(/N=C/c2cc(-c3nc(-c4ccc(N5CCCC5)nc4)ns3)cc(F)c2O)CC1` [Compound 165, 2-fluoro-6-(((4-methylpiperazin-1-yl)imino)methyl)-4-(3-(6-(pyrrolidin-1-yl)pyridin-3-yl)-1,2,4-thiadiazol-5-yl)phenol] yielded an IC50 [1] of 1.1 µM, an IC50 [2] of 0.9 µM and an IC50 [3] of 0.41 µM.
In the case of `Oc1c(F)cc(-c2nc(-c3ccc(N4CCCC4)cc3)ns2)cc1/C=N/N1CCOCC1` [Compound 166, 2-fluoro-6-((morpholinoimino)methyl)-4-(3-(4-(pyrrolidin-1-yl)phenyl)-1,2,4-thiadiazol-5-yl)phenol], the IC50 [1] is reported as 2.8 µM, the IC50 [2] is reported as 1 µM and the IC50 [3] is reported as 0.14 µM and 0.18 µM.
`O=Cc1cc(C(=O)Nc2nc(-c3ccc(N4CCCC4)cc3)ns2)cc(F)c1O` [Compound 167, 3-fluoro-5-formyl-4-hydroxy-N-(3-(4-(pyrrolidin-1-yl)phenyl)-1,2,4-thiadiazol-5-yl)benzamide] showed an IC50 [1] of 1.5 µM, an IC50 [2] of 0.6 µM and an IC50 [3] of 0.5 µM.
